{
  "source": "ChEMBL document CHEMBL5244218",
  "about": "“Quinolone derivatives and their activities against methicillin-resistant Staphylococcus aureus (MRSA)” (Eur J Med Chem, 2018)",
  "key": {"Staphylococcus aureus [1]": {"test_system": "Staphylococcus aureus", "test": "Antibacterial activity against methicillin-resistant Staphylococcus aureus isolates by two fold dilution method", "assay_type": "functional"}, "Staphylococcus aureus [2]": {"test_system": "Staphylococcus aureus", "test": "Antimicrobial activity against methicillin-resistant Staphylococcus aureus isolates by agar dilution method", "assay_type": "functional"}, "Staphylococcus aureus [3]": {"test_system": "Staphylococcus aureus", "test": "Antimicrobial activity against methicillin-resistant Staphylococcus aureus", "assay_type": "functional, organism-based"}, "Staphylococcus aureus [4]": {"test_system": "Staphylococcus aureus", "test": "Antibacterial activity against methicillin-resistant Staphylococcus aureus", "assay_type": "functional"}, "Staphylococcus aureus [5]": {"test_system": "Staphylococcus aureus", "test": "Antimicrobial activity against methicillin-resistant Staphylococcus aureus assessed as inhibition of microbial growth", "assay_type": "functional"}, "Staphylococcus aureus [6]": {"test_system": "Staphylococcus aureus", "test": "Bactericidal activity against methicillin-resistant Staphylococcus aureus assessed as inhibition of microbial growth", "assay_type": "functional"}, "Staphylococcus aureus [7]": {"test_system": "Staphylococcus aureus", "test": "Antimicrobial activity against methicillin-resistant Staphylococcus aureus incubated for 18 hrs by Agar dilution method", "assay_type": "functional"}, "Staphylococcus aureus [8]": {"test_system": "Staphylococcus aureus", "test": "Antibacterial activity against methicillin-resistant Staphylococcus aureus assessed as inhibition of microbial growth", "assay_type": "functional"}, "Staphylococcus aureus [9]": {"test_system": "Staphylococcus aureus", "test": "Antimicrobial activity against methicillin-resistant Staphylococcus aureus incubated for 18 hrs by Alamar blue staining based analysis", "assay_type": "functional"}},
  "data": [
    {"compound": "CC1CN(c2c(F)cc3c(=O)c(C(=O)O)c4scc5n4c3c2N(C)C5)CCN1C", "note": "(centres undefined)", "values": [
      {"measurement": "MIC", "setting": "Staphylococcus aureus [1]", "result": 0.05, "unit": "µg/mL"}
    ]},
    {"compound": "COc1ccc(NC2CN(c3c(F)cc4c(=O)c(C(=O)O)cn(C5CC5)c4c3F)C2)cc1", "values": [
      {"measurement": "MIC", "setting": "Staphylococcus aureus [2]", "result": 0.16, "unit": "µg/mL"}
    ]},
    {"compound": "O=C(O)c1cn(C2CC2)c2c(F)c(N3CC(Nc4ccc(Cl)cc4)C3)c(F)cc2c1=O", "values": [
      {"measurement": "MIC", "setting": "Staphylococcus aureus [2]", "result": 0.016, "unit": "µg/mL"}
    ]},
    {"compound": "O=C(O)c1cn(C2CC2)c2c(F)c(N3CC(N(Cc4ccccc4)Cc4ccccc4)C3)c(F)cc2c1=O", "values": [
      {"measurement": "MIC", "setting": "Staphylococcus aureus [2]", "result": 0.016, "unit": "µg/mL"}
    ]},
    {"compound": "O=C(O)c1cn(C2CC2)c2c(F)c(N3CC(Nc4ccccc4)C3)c(F)cc2c1=O", "values": [
      {"measurement": "MIC", "setting": "Staphylococcus aureus [2]", "result": 0.016, "unit": "µg/mL"}
    ]},
    {"compound": "Cc1ccc(NC2CN(c3c(F)cc4c(=O)c(C(=O)O)cn(C5CC5)c4c3F)C2)cc1", "values": [
      {"measurement": "MIC", "setting": "Staphylococcus aureus [2]", "result": 0.016, "unit": "µg/mL"}
    ]},
    {"compound": "CCOC(=O)c1ccc(NC2CN(c3c(F)cc4c(=O)c(C(=O)O)cn(C5CC5)c4c3F)C2)cc1", "values": [
      {"measurement": "MIC", "setting": "Staphylococcus aureus [2]", "result": 0.016, "unit": "µg/mL"}
    ]},
    {"compound": "COc1cc(=O)n(C)c2ccccc12", "values": [
      {"measurement": "IC50", "setting": "Staphylococcus aureus [3]", "result": 8, "unit": "µM"}
    ]},
    {"compound": "COc1c(N2CCOCC2)c(F)cc2c(=O)c(C(=O)Nc3nccs3)cn(C3CC3)c12", "values": [
      {"measurement": "MIC", "setting": "Staphylococcus aureus [4]", "result": "> 201", "unit": "µg/mL"}
    ]},
    {"compound": "COc1c(N2CCCCC2)c(F)cc2c(=O)c(C(=O)Nc3nccs3)cn(C3CC3)c12", "values": [
      {"measurement": "MIC", "setting": "Staphylococcus aureus [4]", "result": "> 201", "unit": "µg/mL"}
    ]},
    {"compound": "COc1c(N2CCCC2)c(F)cc2c(=O)c(C(=O)Nc3nccs3)cn(C3CC3)c12", "values": [
      {"measurement": "MIC", "setting": "Staphylococcus aureus [4]", "result": "> 201", "unit": "µg/mL"}
    ]},
    {"compound": "COc1ccc(C2=CN3c4c(c(=O)c(C(=O)O)cn4C4CC4)C=C(F)C3N=N2)cc1OC", "note": "(centres undefined)", "values": [
      {"measurement": "MIC", "setting": "Staphylococcus aureus [5]", "result": 0.25, "unit": "µg/mL"}
    ]},
    {"compound": "COc1c(-n2cc3ccccc3c2)c(F)cc2c(=O)c(C(=O)Nc3nccs3)cn(C3CC3)c12", "values": [
      {"measurement": "MIC", "setting": "Staphylococcus aureus [4]", "result": "> 201", "unit": "µg/mL"}
    ]},
    {"compound": "COc1ccc(C(=O)N2CCN(C(=O)N3CCN(c4ccc5c(=O)c(C(=O)O)cn(C6CC6)c5c4)CC3)CC2)cc1OC", "values": [
      {"measurement": "MBC", "setting": "Staphylococcus aureus [6]", "result": "≥ 128", "unit": "µg/mL"},
      {"measurement": "MIC", "setting": "Staphylococcus aureus [5]", "result": "< 0.016", "unit": "µg/mL"}
    ]},
    {"compound": "Cn1nc2c(c1N)CN(c1nc3c(cc1F)c(=O)c(C(=O)O)cn3C1CC1)C2", "values": [
      {"measurement": "MIC", "setting": "Staphylococcus aureus [7]", "result": 0.125, "unit": "µg/mL"}
    ]},
    {"compound": "COc1cc(OC)cc(C(=O)N2CCN(C(=O)N3CCN(c4ccc5c(=O)c(C(=O)O)cn(C6CC6)c5c4)CC3)CC2)c1", "values": [
      {"measurement": "MBC", "setting": "Staphylococcus aureus [6]", "result": "≥ 128", "unit": "µg/mL"},
      {"measurement": "MIC", "setting": "Staphylococcus aureus [5]", "result": "< 0.016", "unit": "µg/mL"}
    ]},
    {"compound": "COc1c2c(cc(F)c1N1C[C@H]3CCCN(C[C@@H](O)Cn4cc([N+](=O)[O-])nc4C)[C@H]3C1)C(=O)C(C(=O)O)=CC2C1CC1", "note": "(some centres undefined)", "values": [
      {"measurement": "MIC", "setting": "Staphylococcus aureus [3]", "result": 2, "unit": "µg/mL"}
    ]},
    {"compound": "CNCC1CN(c2cc(N)c3c(=O)c(C(=O)O)cn(C4CC4)c3c2C(C)=O)CC1(C)C", "note": "(centres undefined)", "values": [
      {"measurement": "MIC", "setting": "Staphylococcus aureus [8]", "result": 0.015, "unit": "µg/mL"}
    ]},
    {"compound": "Nc1[nH]nc2c1CN(c1c(F)cc3c(=O)c(C(=O)O)cn(CCF)c3c1F)C2", "values": [
      {"measurement": "MIC", "setting": "Staphylococcus aureus [7]", "result": 0.125, "unit": "µg/mL"}
    ]},
    {"compound": "COc1c(N2CC/C(=N/Oc3ccc(Cl)cc3)C(N)C2)c(F)cc2c(=O)c(C(=O)O)cn(C3CC3)c12", "note": "(centres undefined)", "values": [
      {"measurement": "MIC", "setting": "Staphylococcus aureus [9]", "result": 0.008, "unit": "µg/mL"}
    ]},
    {"compound": "CCO/N=C1\\CCN(c2nc3c(cc2F)c(=O)c(C(=O)O)cn3C2CC2)CC1(C)CN", "note": "(centres undefined)", "values": [
      {"measurement": "MIC", "setting": "Staphylococcus aureus [3]", "result": 8, "unit": "µg/mL"}
    ]},
    {"compound": "CNCC1CN(c2ccc3c(=O)c(C(=O)O)cn(C4CC4)c3c2)CC1(C)C", "note": "(centres undefined)", "values": [
      {"measurement": "MIC", "setting": "Staphylococcus aureus [8]", "result": 0.015, "unit": "µg/mL"}
    ]},
    {"compound": "COc1cc(OC)cc(O/N=C2/CCN(c3c(F)cc4c(=O)c(C(=O)O)cn(C5CC5)c4c3OC)CC2N)c1", "note": "(centres undefined)", "values": [
      {"measurement": "MIC", "setting": "Staphylococcus aureus [9]", "result": 0.008, "unit": "µg/mL"}
    ]},
    {"compound": "CNCC1CN(c2ccc3c(=O)c(C(=O)O)cn(C4CC4)c3n2)CC1(C)C", "note": "(centres undefined)", "values": [
      {"measurement": "MIC", "setting": "Staphylococcus aureus [8]", "result": 0.015, "unit": "µg/mL"}
    ]},
    {"compound": "COc1cccc(C(=O)N2CCN(C(=O)N3CCN(c4ccc5c(=O)c(C(=O)O)cn(C6CC6)c5c4)CC3)CC2)c1", "values": [
      {"measurement": "MBC", "setting": "Staphylococcus aureus [6]", "result": "≥ 128", "unit": "µg/mL"},
      {"measurement": "MIC", "setting": "Staphylococcus aureus [5]", "result": "< 0.016", "unit": "µg/mL"}
    ]},
    {"compound": "Nc1[nH]nc2c1CN(c1c(F)cc3c(=O)c(C(=O)O)cn(C4CC4)c3c1C(=O)C(F)F)C2", "values": [
      {"measurement": "MIC", "setting": "Staphylococcus aureus [7]", "result": 0.125, "unit": "µg/mL"}
    ]},
    {"compound": "COc1ccc(C(=O)N2CCN(C(=O)N3CCN(c4ccc5c(=O)c(C(=O)O)cn(C6CC6)c5c4)CC3)CC2)c(OC)c1", "values": [
      {"measurement": "MBC", "setting": "Staphylococcus aureus [6]", "result": "≥ 128", "unit": "µg/mL"},
      {"measurement": "MIC", "setting": "Staphylococcus aureus [5]", "result": "< 0.016", "unit": "µg/mL"}
    ]},
    {"compound": "Cn1nc2c(c1N)CN(c1c(F)cc3c(=O)c(C(=O)O)cn(C4CC4)c3c1F)C2", "values": [
      {"measurement": "MIC", "setting": "Staphylococcus aureus [7]", "result": 0.125, "unit": "µg/mL"}
    ]},
    {"compound": "CCn1cc(C(=O)O)c(=O)c2cc(F)c(N3Cc4n[nH]c(N)c4C3)c(F)c21", "values": [
      {"measurement": "MIC", "setting": "Staphylococcus aureus [7]", "result": 0.125, "unit": "µg/mL"}
    ]},
    {"compound": "O=C(O)c1cn(C2CC2)c2c(c1=O)C=C(F)C1N=NC(c3ccc(Br)cc3)=CN21", "note": "(centres undefined)", "values": [
      {"measurement": "MIC", "setting": "Staphylococcus aureus [5]", "result": 0.25, "unit": "µg/mL"}
    ]},
    {"compound": "CC1(C)CN(c2ccc3c(=O)c(C(=O)O)cn(-c4ccc(F)cc4F)c3n2)CC1CN", "note": "(centres undefined)", "values": [
      {"measurement": "MIC", "setting": "Staphylococcus aureus [8]", "result": 0.015, "unit": "µg/mL"}
    ]},
    {"compound": "CC1(C)CN(c2ccc3c(=O)c(C(=O)O)cn(C4CC4)c3c2)CC1CN", "note": "(centres undefined)", "values": [
      {"measurement": "MIC", "setting": "Staphylococcus aureus [8]", "result": 0.015, "unit": "µg/mL"}
    ]},
    {"compound": "Cn1nc2c(c1N)CN(c1c(F)cc3c(=O)c(C(=O)O)cn(C4CC4)c3c1C(=O)C(F)F)C2", "values": [
      {"measurement": "MIC", "setting": "Staphylococcus aureus [7]", "result": 0.125, "unit": "µg/mL"}
    ]},
    {"compound": "COc1ccc(OC)c(O/N=C2/CCN(c3c(F)cc4c(=O)c(C(=O)O)cn(C5CC5)c4c3OC)CC2N)c1", "note": "(centres undefined)", "values": [
      {"measurement": "MIC", "setting": "Staphylococcus aureus [9]", "result": 0.008, "unit": "µg/mL"}
    ]},
    {"compound": "Nc1[nH]nc2c1CN(c1c(F)cc3c(=O)c(C(=O)O)cn(C4CC4)c3c1F)C2", "values": [
      {"measurement": "MIC", "setting": "Staphylococcus aureus [7]", "result": 0.125, "unit": "µg/mL"}
    ]},
    {"compound": "O=C(O)c1cn(C2CC2)c2c(c1=O)C=C(F)C1N=NC(c3cccc(Cl)c3)=CN21", "note": "(centres undefined)", "values": [
      {"measurement": "MIC", "setting": "Staphylococcus aureus [5]", "result": 0.25, "unit": "µg/mL"}
    ]},
    {"compound": "O=C(O)c1cn(C2CC2)c2c(c1=O)C=C(F)C1N=NC(c3ccc(O)cc3)=CN21", "note": "(centres undefined)", "values": [
      {"measurement": "MIC", "setting": "Staphylococcus aureus [5]", "result": 0.25, "unit": "µg/mL"}
    ]},
    {"compound": "Nc1cccc(C2=CN3c4c(c(=O)c(C(=O)O)cn4C4CC4)C=C(F)C3N=N2)c1", "note": "(centres undefined)", "values": [
      {"measurement": "MIC", "setting": "Staphylococcus aureus [5]", "result": 0.25, "unit": "µg/mL"}
    ]},
    {"compound": "O=C(O)c1cn(C2CC2)c2c(c1=O)C=C(F)C1N=NC(c3ccc(Cl)cc3)=CN21", "note": "(centres undefined)", "values": [
      {"measurement": "MIC", "setting": "Staphylococcus aureus [5]", "result": 0.25, "unit": "µg/mL"}
    ]},
    {"compound": "Nc1[nH]nc2c1CN(c1nc3c(cc1F)c(=O)c(C(=O)O)cn3-c1ccc(F)cc1F)C2", "values": [
      {"measurement": "MIC", "setting": "Staphylococcus aureus [7]", "result": 0.125, "unit": "µg/mL"}
    ]}
  ]
}
